For orientation: EC50 means the concentration that produces a half-maximal response.

Like-named read-outs stand apart in the source and are kept apart here. A value given as a limit tells only on which side of the number the result lay.

The target of assay [1] is T1, human enzyme NAMPT (full length) (Homo sapiens, UniProt P43490).
T1 construct: human enzyme NAMPT (full length)
Description: NMN fluorescence biochemical assay (stimulation of NMN synthesis by NAMPT). As to conditions: for EC50: concentration giving half-maximal activation, read-out: Enzymatic EC50; for Enzymatic Emax: fold change of maximal activation compared to DMSO. In short, it runs like this:
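Full-length human NAMPT (100 nM) was preincubated 15 min at 37 °C with compound in 50 mM Tris-HCl pH 7.5, 10 mM MgCl2, 2 mM DTT, then reacted 1 h at 37 °C with 50 μM NAM, 100 μM PRPP, 4 mM ATP (stated solution concentrations). NMN was derivatised with acetophenone/KOH then formic acid and read at Ex/Em 382/445 nm; EC50 and Emax (fold over DMSO) reported.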

Assay [2] concerns endogenous NAMPT in U2OS cells. Briefly: Cellular NAD+ modulation assay (NAD/NADH-Glo, U2OS cells). The format is cell-based. Conditions: Homo sapiens; for maximal fold induction: read-out: Cellular Emax. A digest of the protocol: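 Endogenous NAMPT stimulation in U2OS cells treated with compound dilution series for 24 h at 37 °C. Cells lysed with DTAB base, acid-treated 15 min at 60 °C, neutralized, NAD+ read by NAD/NADH-Glo luminescence after 40 min at room temperature. EC50 and Emax (fold over DMSO) derived.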

[3] abbreviates: NMN synthesis by purified human NAMPT (100 nM).
[4] abbreviates: 24 hours incubation with compound.
Where [5] appears, read: NMN fluorescence assay, purified human NAMPT 100 nM.
Where [6] appears, read: 24 hours incubation, cellular NAD+.

T1 sequence (P43490 whole entry): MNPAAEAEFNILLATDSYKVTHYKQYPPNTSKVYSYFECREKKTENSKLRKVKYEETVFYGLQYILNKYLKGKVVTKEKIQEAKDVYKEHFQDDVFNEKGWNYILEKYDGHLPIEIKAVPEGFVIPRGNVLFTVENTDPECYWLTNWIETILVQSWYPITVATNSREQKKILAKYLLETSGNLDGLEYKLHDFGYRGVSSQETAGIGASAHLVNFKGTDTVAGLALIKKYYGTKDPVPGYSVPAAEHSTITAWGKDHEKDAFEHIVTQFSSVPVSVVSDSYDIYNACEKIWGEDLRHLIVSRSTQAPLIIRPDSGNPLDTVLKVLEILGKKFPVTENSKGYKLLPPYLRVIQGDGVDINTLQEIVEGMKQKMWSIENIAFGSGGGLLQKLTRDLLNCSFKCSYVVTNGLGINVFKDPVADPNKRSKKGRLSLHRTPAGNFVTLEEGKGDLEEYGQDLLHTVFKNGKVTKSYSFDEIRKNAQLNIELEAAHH

Consider `O=c1[nH]c2ccc(Cn3ccc4ccccc4c3=O)cc2o1` [Compound 4, 6-((1-oxoisoquinolin-2(1H)-yl)methyl)benzo[d]oxazol-2(3H)-one], for which the EC50 in assay [1] (setting [3]) is not below 5000 nM. In addition, the “Enzymatic Emax” value in assay [1] is on record as “B (3≥B>2)”. In assay [2] (setting [4]), the EC50 is 5000 to 50000 nM and the maximal fold induction was 1.2 to 1.5.
As to `Cc1ccc2c(c1)C(=O)N(Cc1ccc3[nH]c(=O)oc3c1)C2=O` [Compound 297, 5-methyl-2-((2-oxo-2,3-dihydrobenzo[d]oxazol-6-yl)methyl)isoindoline-1,3-dione], the EC50 in assay [1] (setting [3]) and in assay [2] (setting [4]) was 500 to 5000 nM throughout. In addition, the “Enzymatic Emax” value in assay [1] is listed as “C (2≥C)”. The maximal fold induction in assay [2] (setting [4]) was 1.2 to 1.5.
Take `CC1c2ccccc2C(=O)N1Cc1cc(F)c2[nH]c(=O)oc2c1` (stereo not shown) [Compound 89, 4-fluoro-6-((1-methyl-3-oxoisoindolin-2-yl)methyl)benzo[d]oxazol-2(3H)-one]: the EC50 in assay [1] (setting [3]) is not below 5000 nM. In assay [1], the “Enzymatic Emax” value is reported as “B (3≥B>2)”. For the same molecule, in assay [2] (setting [4]), the EC50 is 5000 to 50000 nM and the maximal fold induction is 1.2 to 1.5.
In the case of `Cn1ncc(Cl)c1CC1c2ccccc2C(=O)N1C/C(F)=C\c1c[nH]nn1` (stereo not shown) [Compound 515, (E)-3-((4-chloro-1-methyl-1H-pyrazol-5-yl)methyl)-2-(2-fluoro-3-(1H-1,2,3-triazol-4-yl)allyl)isoindolin-1-one], in assay [1] (setting [5]), the EC50 was not below 5000 nM. For the same molecule, the “Enzymatic Emax” value in assay [1] is listed as “B (3≥B>2)”. In assay [2] (setting [6]), the EC50 was 500 to 5000 nM and the maximal fold induction is more than 1.5.
For `N#CCn1cc(Cl)c(CC2c3ccccc3C(=O)N2Cc2ccc3[nH]nnc3c2)n1` (stereo not shown) [Compound 410, 2-(3-((2-((1H-benzo[d][1,2,3]triazol-5-yl)methyl)-3-oxoisoindolin-1-yl)methyl)-4-chloro-1H-pyrazol-1-yl)acetonitrile], the EC50 in assay [1] (setting [5]) was less than 500 nM. In addition, the “Enzymatic Emax” value in assay [1] is on record as “B (3≥B>2)”. Also, in assay [2] (setting [6]), the EC50 lay in the range of 500 to 5000 nM and the maximal fold induction was more than 1.5.
For `N#Cc1ccnc(C#N)c1CC1c2ccccc2C(=O)N1Cc1ccc2[nH]nnc2c1` (stereo not shown) [Compound 353, 3-((2-((1H-benzo[d][1,2,3]triazol-5-yl)methyl)-3-oxoisoindolin-1-yl)methyl)pyridine-2,4-dicarbonitrile], in that order: less than 500 nM, “A (A>3)”, less than 500 nM and more than 1.5.
As to `Cn1nc(C2CNC2)c(Cl)c1CC1c2ccccc2C(=O)N1Cc1ccc2[nH]nnc2c1` (stereo not shown) [Compound 438, 2-((1H-benzo[d][1,2,3]triazol-5-yl)methyl)-3-((3-(azetidin-3-yl)-4-chloro-1-methyl-1H-pyrazol-5-yl)methyl)isoindolin-1-one], the EC50 in assay [1] (setting [5]) is less than 500 nM. Moreover, the “Enzymatic Emax” value in assay [1] was “B (3≥B>2)”. Also, in assay [2] (setting [6]), the EC50 fell in the range of 500 to 5000 nM and the maximal fold induction was more than 1.5.
Turning to `COc1ccc2c(c1)CN(Cc1ccc3[nH]c(=O)oc3c1)C2=O` [Compound 49, 6-((5-methoxy-1-oxoisoindolin-2-yl)methyl)benzo[d]oxazol-2(3H)-one], the EC50 in assay [1] (setting [3]) was not below 5000 nM. Moreover, in assay [1], the “Enzymatic Emax” value was “B (3≥B>2)”. In assay [2] (setting [4]), the EC50 is 5000 to 50000 nM and the maximal fold induction was more than 1.5.
Regarding `CC1c2cc(CN3CCCC3)ccc2C(=O)N1Cc1ccc2[nH]c(=O)oc2c1` (stereo not shown) [Compound 96, 6-((3-methyl-1-oxo-5-(pyrrolidin-1-ylmethyl)isoindolin-2-yl)methyl)benzo[d]oxazol-2(3H)-one], in assay [1] (setting [3]), the EC50 was not below 5000 nM. Also, in assay [1], the “Enzymatic Emax” value is “A (A>3)”. In addition, in assay [2] (setting [4]), the 50% effective concentration (EC50) is 500 to 5000 nM and the maximal fold induction is more than 1.5.
Take `Cn1nc(C(F)(F)F)c(Cl)c1CC1c2ccccc2C(=O)N1Cc1ccc2[nH]nnc2c1` (stereo not shown) [Compound 362, 2-((1H-benzo[d][1,2,3]triazol-5-yl)methyl)-3-((4-chloro-1-methyl-3-(trifluoromethyl)-1H-pyrazol-5-yl)methyl)isoindolin-1-one]: in assay [1] (setting [5]), the EC50 was less than 500 nM. The “Enzymatic Emax” value in assay [1] is given as “B (3≥B>2)”. Further, in assay [2] (setting [6]), the EC50 was less than 500 nM and the maximal fold induction is more than 1.5.
For the molecule `Cn1ncc(Cl)c1CC1c2cc(OC(F)F)ccc2C(=O)N1Cc1ccc2[nH]nnc2c1` (stereo not shown) [Compound 421, 2-((1H-benzo[d][1,2,3]triazol-5-yl)methyl)-3-((4-chloro-1-methyl-1H-pyrazol-5-yl)methyl)-5-(difluoromethoxy)isoindolin-1-one], the EC50 in assay [1] (setting [5]) was less than 500 nM. In assay [1], the “Enzymatic Emax” value is listed as “B (3≥B>2)”. In assay [2] (setting [6]), the EC50 was less than 500 nM and the maximal fold induction is more than 1.5.
As to `COCCOc1nn(C)c(CC2c3ccccc3C(=O)N2Cc2ccc3[nH]nnc3c2)c1Cl` (stereo not shown) [Compound 371, 2-((1H-benzo[d][1,2,3]triazol-5-yl)methyl)-3-((4-chloro-3-(2-methoxyethoxy)-1-methyl-1H-pyrazol-5-yl)methyl)isoindolin-1-one], in assay [1] (setting [5]), the EC50 is less than 500 nM. Further, the “Enzymatic Emax” value in assay [1] was “B (3≥B>2)”. Also, in assay [2] (setting [6]), the EC50 is less than 500 nM and the maximal fold induction was more than 1.5.
For the molecule `COc1ccc(CN2C(=O)c3ccccc3C2Cc2c(Cl)ccc(=O)n2C)cc1` (stereo not shown) [Compound 589, 3-((3-chloro-1-methyl-6-oxo-1,6-dihydropyridin-2-yl)methyl)-2-(4-methoxybenzyl)isoindolin-1-one], the EC50 in assay [1] (setting [5]) fell in the range of 500 to 5000 nM. The “Enzymatic Emax” value in assay [1] was “A (A>3)”. Besides, in assay [2] (setting [6]), the EC50 was less than 500 nM and the maximal fold induction is more than 1.5.
`O=C1c2ccccc2C(Cc2ncsc2Cl)N1Cc1ccc2[nH]nnc2c1` (stereo not shown) [Compound 418, 2-((1H-benzo[d][1,2,3]triazol-5-yl)methyl)-3-((5-chlorothiazol-4-yl)methyl)isoindolin-1-one]: the EC50 in assay [1] (setting [5]) is less than 500 nM. The “Enzymatic Emax” value in assay [1] is on record as “B (3≥B>2)”. Further, in assay [2] (setting [6]), the EC50 was less than 500 nM and the maximal fold induction was more than 1.5.
In the case of `Cn1nc(Cl)c(CC2c3ccccc3C(=O)N2Cc2ccc3[nH]nnc3c2)n1` (stereo not shown) [Compound 335, 2-((1H-benzo[d][1,2,3]triazol-5-yl)methyl)-3-((5-chloro-2-methyl-2H-1,2,3-triazol-4-yl)methyl)isoindolin-1-one], the EC50 in assay [1] (setting [5]) fell in the range of 500 to 5000 nM. Besides, the “Enzymatic Emax” value in assay [1] is recorded as “A (A>3)”. Further, in assay [2] (setting [6]), the EC50 is less than 500 nM and the maximal fold induction was more than 1.5.
With `O=C1NC(=O)C2(CC(CN3C(=O)c4ccccc4C3Cc3ncccc3Br)C2)O1` (stereo not shown) [Compound 476, 2-((1-((3-bromopyridin-2-yl)methyl)-3-oxoisoindolin-2-yl)methyl)-5-oxa-7-azaspiro[3.4]octane-6,8-dione], the EC50 is not below 5000 nM in assay [1] (setting [5]) and 5000 to 50000 nM in assay [2] (setting [6]). In assay [1], the “Enzymatic Emax” value is given as “B (3≥B>2)”. Besides, in assay [2] (setting [6]), the maximal fold induction was more than 1.5.
Take `CC1c2cc(Cc3ccccc3)ccc2C(=O)N1Cc1ccc2[nH]c(=O)oc2c1` (stereo not shown) [Compound 113, 6-((5-benzyl-3-methyl-1-oxoisoindolin-2-yl)methyl)benzo[d]oxazol-2(3H)-one]: in assay [1] (setting [3]), the EC50 was 500 to 5000 nM. In assay [1], the “Enzymatic Emax” value is “B (3≥B>2)”. Further, in assay [2] (setting [4]), the EC50 was in the range of 500 to 5000 nM and the maximal fold induction is 1.2 to 1.5.
Consider `O=C1c2ccccc2C(Cc2ncccc2Br)N1Cc1ccc2[nH]ncc2c1` (stereo not shown) [Compound 240, 2-((1H-indazol-5-yl)methyl)-3-((3-bromopyridin-2-yl)methyl)isoindolin-1-one], for which the EC50 in assay [1] (setting [3]) was less than 500 nM. Moreover, in assay [1], the “Enzymatic Emax” value is “B (3≥B>2)”. Moreover, in assay [2] (setting [4]), the EC50 was less than 500 nM and the maximal fold induction fell in the range of 1.2 to 1.5.
Consider `COc1ccc(CN2C(=O)c3ccccc3C2Cc2c(Cl)cnn2C)cc1` (stereo not shown) [Compound 518, 3-((4-chloro-1-methyl-1H-pyrazol-5-yl)methyl)-2-(4-methoxybenzyl)isoindolin-1-one], for which, in assay [1] (setting [5]), the 50% effective concentration (EC50) is 500 to 5000 nM. Besides, the “Enzymatic Emax” value in assay [1] is listed as “B (3≥B>2)”. Further, in assay [2] (setting [6]), the EC50 is less than 500 nM and the maximal fold induction fell in the range of 1.2 to 1.5.
`N#Cc1nccc(Cl)c1CC1c2ccccc2C(=O)N1Cc1ccc2[nH]nnc2c1` (stereo not shown) [Compound 228, 3-((2-((1H-benzo[d][1,2,3]triazol-5-yl)methyl)-3-oxoisoindolin-1-yl)methyl)-4-chloropicolinonitrile]: the EC50 in assay [1] (setting [3]) and in assay [2] (setting [4]) was less than 500 nM each time. The “Enzymatic Emax” value in assay [1] is recorded as “B (3≥B>2)”. Further, in assay [2] (setting [4]), the maximal fold induction is more than 1.5.
Take `Cn1c(CC2c3ccccc3C(=O)N2CC2CC3(CNC(=O)O3)C2)c(Cl)ccc1=O` (stereo not shown) [Compound 467, 2-((1-((3-chloro-1-methyl-6-oxo-1,6-dihydropyridin-2-yl)methyl)-3-oxoisoindolin-2-yl)methyl)-5-oxa-7-azaspiro[3.4]octan-6-one]: the EC50 in assay [1] (setting [5]) and in assay [2] (setting [6]) was less than 500 nM in each case. Also, in assay [1], the “Enzymatic Emax” value is on record as “B (3≥B>2)”. Also, the maximal fold induction in assay [2] (setting [6]) was more than 1.5.
Turning to `Cn1ncc(Cl)c1CC1c2ccccc2C(=O)N1Cc1c[nH]c(=S)s1` (stereo not shown) [Compound 631, 3-((4-chloro-1-methyl-1H-pyrazol-5-yl)methyl)-2-((2-thioxo-2,3-dihydrothiazol-5-yl)methyl)isoindolin-1-one], the figures for the EC50 in assay [1] (setting [5]) and in assay [2] (setting [6]) were not below 5000 nM and 500 to 5000 nM, respectively. Besides, the “Enzymatic Emax” value in assay [1] is listed as “A (A>3)”. The maximal fold induction in assay [2] (setting [6]) was more than 1.5.

For the origin of these results see US20260078130A1, “NAMPT MODULATORS, PREPARATIONS, AND USES THEREOF” (SIRONAX LTD., priority 2022, published 2026).
